Source: patent US11691951B2 (Curtana Pharmaceuticals, Inc., priority 2015, dated 2023)

Test system: GBM8 cells (human glioblastoma neurosphere cell culture)
Assay: GBM8 viability assay (Cell Titer Glo luminescence, 3 days)
Format: cell-based
Conditions: 72 h, 3 days incubation
Summary of the method: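 Patient-derived neurosphere cells (4000/well) in NeuroCult medium with rh EGF, rh bFGF and heparin, ultra-low attachment, dosed after overnight settling; 3 days at 37 °C. CellTiter-Glo luminescence versus DMSO controls gave % growth inhibition; IC50 from 4-parameter fit of serial dilutions.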

IC50 | SMILES
1000 to 10000 nM | CNCCNc1cc(C)nc(NC(=O)Nc2cccc(C)c2)n1 [Compound 229, 1-(4-methyl-6-((2-(methylamino)ethyl)amino)pyrimidin-2-yl)-3-(m-tolyl)urea]
< 1000 nM | CNCCCNc1cc(C)nc(NC(=O)Nc2cccc(C)c2)n1 [Compound 230]
1000 to 10000 nM | CNCCCCNc1cc(C)nc(NC(=O)Nc2cccc(C)c2)n1 [Compound 231]
< 1000 nM | Cc1cccc(NC(=O)Nc2nc(C)cc(NCC3CCCNC3)n2)c1 (stereo not shown) [Compound 232]
< 1000 nM | Cc1ccc(NC(=O)Nc2nc(C)cc(NCCCN(C)C)n2)cc1 [Compound 234, 1-(4-((3-(dimethylamino)propyl)amino)-6-methylpyrimidin-2-yl)-3-(p-tolyl)urea]
< 1000 nM | Cc1ccc(NC(=O)Nc2nc(C)cc(NCCCN)n2)cc1 [Compound 236]
< 1000 nM | Cc1ccc(NC(=O)Nc2nc(C)cc(NCCN)n2)cc1 [Compound 237]
1000 to 10000 nM | Cc1ccc(NC(=O)Nc2nc(C)cc(NCCOCCO)n2)cc1 [Compound 238]
< 1000 nM | Cc1ccc(NC(=O)Nc2nc(C)cc(NCCCCO)n2)cc1 [Compound 239]
< 1000 nM | Cc1ccc(NC(=O)Nc2nc(C)cc(NCCO)n2)cc1 [Compound 240]
< 1000 nM | Cc1ccc(NC(=O)Nc2nc(C)cc(NCCCCN)n2)cc1 [Compound 241]
1000 to 10000 nM | Cc1ccc(NC(=O)Nc2nc(C)cc(NCCN(C)C)n2)cc1 [Compound 242]
< 1000 nM | Cc1ccc(NC(=O)Nc2nc(C)cc(NCCCc3cnc[nH]3)n2)cc1 [Compound 243]
1000 to 10000 nM | Cc1ccc(NC(=O)Nc2nc(C)cc(NCCCCN(C)C)n2)cc1 [Compound 245]
< 1000 nM | Cc1ccc(NC(=O)Nc2nc(C)cc(NCC(O)CO)n2)cc1 (stereo not shown) [Compound 246]
1000 to 10000 nM | CNCCCNc1cc(C)nc(NC(=O)Nc2ccc(C)cc2)n1 [Compound 248, 1-(4-methyl-6-((3-(methylamino)propyl)amino)pyrimidin-2-yl)-3-(p-tolyl)urea]
1000 to 10000 nM | Cc1ccc(NC(=O)Nc2nc(C)cc(NCC3CCCNC3)n2)cc1 (stereo not shown) [Compound 249, 1-(4-methyl-6-((piperidin-3-ylmethyl)amino)pyrimidin-2-yl)-3-(p-tolyl)urea]
< 1000 nM | Cc1cc(NCCCN(C)C)nc(NC(=O)Nc2ccc(C)c(C)c2)n1 [Compound 251, 1-(4-((3-(dimethylamino)propyl)amino)-6-methylpyrimidin-2-yl)-3-(3,4-dimethylphenyl)urea]
< 1000 nM | Cc1cc(NCCCN)nc(NC(=O)Nc2ccc(C)c(C)c2)n1 [Compound 253]
< 1000 nM | Cc1cc(NCCCCN)nc(NC(=O)Nc2ccc(C)c(C)c2)n1 [Compound 254]
< 1000 nM | Cc1cc(NCCCCO)nc(NC(=O)Nc2ccc(C)c(C)c2)n1 [Compound 255]
< 1000 nM | Cc1cc(NCCCCN(C)C)nc(NC(=O)Nc2ccc(C)c(C)c2)n1 [Compound 256]

IC50 | SMILES
1000 to 10000 nM | Cc1cc(NCC2CCCN(C)C2)nc(NC(=O)Nc2ccc(C)c(C)c2)n1 (stereo not shown) [Compound 258]
< 1000 nM | Cc1cc(NCCO)nc(NC(=O)Nc2ccc(C)c(C)c2)n1 [Compound 259]
1000 to 10000 nM | Cc1cc(NCCOCCO)nc(NC(=O)Nc2ccc(C)c(C)c2)n1 [Compound 260]
< 1000 nM | CCCNc1cc(C)nc(NC(=O)Nc2ccc(C)c(C)c2)n1 [Compound 261]
< 1000 nM | Cc1cc(NCC(C)O)nc(NC(=O)Nc2ccc(C)c(C)c2)n1 (stereo not shown) [Compound 262]
< 1000 nM | Cc1cc(NCC(O)CO)nc(NC(=O)Nc2ccc(C)c(C)c2)n1 (stereo not shown) [Compound 264]
< 1000 nM | Cc1cc(NCCCc2cnc[nH]2)nc(NC(=O)Nc2ccc(C)c(C)c2)n1 [Compound 266]
1000 to 10000 nM | CNCCNc1cc(C)nc(NC(=O)Nc2ccc(C)c(C)c2)n1 [Compound 268, 1-(3,4-dimethylphenyl)-3-(4-methyl-6-((2-(methylamino)ethyl)amino)pyrimidin-2-yl)urea]
< 1000 nM | CNCCCNc1cc(C)nc(NC(=O)Nc2ccc(C)c(C)c2)n1 [Compound 269]
< 1000 nM | CNCCCCNc1cc(C)nc(NC(=O)Nc2ccc(C)c(C)c2)n1 [Compound 270]
< 1000 nM | Cc1cc(NCC2CCCNC2)nc(NC(=O)Nc2ccc(C)c(C)c2)n1 (stereo not shown) [Compound 271]
1000 to 10000 nM | CC(=O)NCCCNc1cc(C)nc(NC(=O)Nc2ccc(Cl)c(Cl)c2)n1 [Compound 272, N-(3-((2-(3-(3,4-dichlorophenyl)ureido)-6-methylpyrimidin-4-yl)amino)propyl)acetamide]
< 1000 nM | CC(=O)NCCCNc1cc(C)nc(NC(=O)Nc2ccc(OC(F)(F)F)cc2)n1 [Compound 273, N-(3-((6-methyl-2-(3-(4-(trifluoromethoxy)phenyl)ureido)pyrimidin-4-yl)amino)propyl)acetamide]
< 1000 nM | CC(=O)NCCNc1cc(C)nc(NC(=O)Nc2ccc(OC(F)(F)F)cc2)n1 [Compound 274, N-(3-((6-methyl-2-(3-(4-(trifluoromethoxy)phenyl)ureido)pyrimidin-4-yl)amino)ethyl)acetamide]
< 1000 nM | COc1ccc(NC(=O)Nc2nc(C)cc(NCCCNC(C)=O)n2)cc1 [Compound 275, N-(3-((2-(3-(4-methoxyphenyl)ureido)-6-methylpyrimidin-4-yl)amino)propyl)acetamide]
< 1000 nM | COc1ccc(NC(=O)Nc2nc(C)cc(NCCNC(C)=O)n2)cc1 [Compound 276, N-(2-((2-(3-(4-methoxyphenyl)ureido)-6-methylpyrimidin-4-yl)amino)ethyl)acetamide]
1000 to 10000 nM | CC(=O)NCCNc1cc(C)nc(NC(=O)Nc2cccc(C(F)(F)F)c2)n1 [Compound 277]
< 1000 nM | CC(=O)NCCCNc1cc(C)nc(NC(=O)Nc2ccc(F)c(Cl)c2)n1 [Compound 278]
< 1000 nM | Cc1cc(NCCNS(C)(=O)=O)nc(NC(=O)Nc2ccc(OC(F)(F)F)cc2)n1 [Compound 279]
1000 to 10000 nM | Cc1cc(NCCCN(C)C)nc(NC(=O)Nc2ccc3c(c2)OCO3)n1 [Compound 281, 1-(benzo[d][1,3]dioxol-5-yl)-3-(4-((3-(dimethylamino)propyl)amino)-6-methylpyrimidin-2-yl)urea]
< 1000 nM | Cc1cc(NCCCN)nc(NC(=O)Nc2ccc3c(c2)OCO3)n1 [Compound 282]
< 1000 nM | Cc1cc(NCCN)nc(NC(=O)Nc2ccc3c(c2)OCO3)n1 [Compound 283]

IC50 | SMILES
1000 to 10000 nM | Cc1cc(NCCN(C)C)nc(NC(=O)Nc2ccc3c(c2)OCO3)n1 [Compound 284]
< 1000 nM | CCNc1cc(C)nc(NC(=O)Nc2ccc3c(c2)OCO3)n1 [Compound 285]
< 1000 nM | CCCNc1cc(C)nc(NC(=O)Nc2ccc3c(c2)OCO3)n1 [Compound 286]
< 1000 nM | CNCCNc1cc(C)nc(NC(=O)Nc2ccc3c(c2)OCO3)n1 [Compound 288, 1-(benzo[d][1,3]dioxol-5-yl)-3-(4-methyl-6-((2-(methylamino)ethyl)amino)pyrimidin-2-yl)urea]
1000 to 10000 nM | CNCCCNc1cc(C)nc(NC(=O)Nc2ccc3c(c2)OCO3)n1 [Compound 289, 1-(benzo[d][1,3]dioxol-5-yl)-3-(4-methyl-6-((3-(methylamino)propyl)amino)pyrimidin-2-yl)urea]
< 1000 nM | Cc1cc(NCCCN(C)C)nc(NC(=O)Nc2ccc3c(c2)OCCO3)n1 [Compound 291, 1-(2,3-dihydrobenzo[b][1,4]dioxin-6-yl)-3-(4-((3-(dimethylamino)propyl)amino)-6-methylpyrimidin-2-yl)urea]
< 1000 nM | Cc1cc(NCCCN)nc(NC(=O)Nc2ccc3c(c2)OCCO3)n1 [Compound 292]
1000 to 10000 nM | Cc1cc(NCCN)nc(NC(=O)Nc2ccc3c(c2)OCCO3)n1 [Compound 293]
< 1000 nM | Cc1cc(NCCN(C)C)nc(NC(=O)Nc2ccc3c(c2)OCCO3)n1 [Compound 294]
< 1000 nM | CCNc1cc(C)nc(NC(=O)Nc2ccc3c(c2)OCCO3)n1 [Compound 295]
< 1000 nM | CCCNc1cc(C)nc(NC(=O)Nc2ccc3c(c2)OCCO3)n1 [Compound 296]
< 1000 nM | CNCCNc1cc(C)nc(NC(=O)Nc2ccc3c(c2)OCCO3)n1 [Compound 298, 1-(2,3-dihydrobenzo[b][1,4]dioxin-6-yl)-3-(4-methyl-6-((2-(methylamino)ethyl)amino)pyrimidin-2-yl)urea]
1000 to 10000 nM | CNCCCNc1cc(C)nc(NC(=O)Nc2ccc3c(c2)OCCO3)n1 [Compound 299, 1-(2,3-dihydrobenzo[b][1,4]dioxin-6-yl)-3-(4-methyl-6-((3-(methylamino)propyl)amino)pyrimidin-2-yl)urea]
< 1000 nM | Cc1cc(NCCCN(C)C)nc(NC(=O)Nc2ccc(C(C)(C)C)cc2)n1 [Compound 301, 1-(4-(tert-butyl)phenyl)-3-(4-((3-(dimethylamino)propyl)amino)-6-methylpyrimidin-2-yl)urea]
1000 to 10000 nM | Cc1cc(NCCN(C)C)nc(NC(=O)Nc2ccc(C(C)(C)C)cc2)n1 [Compound 302]
< 1000 nM | Cc1cc(NCCCN)nc(NC(=O)Nc2ccc(C(C)(C)C)cc2)n1 [Compound 303]
< 1000 nM | Cc1cc(NCCN)nc(NC(=O)Nc2ccc(C(C)(C)C)cc2)n1 [Compound 304]
< 1000 nM | CC(=O)NCCCNc1cc(C)nc(NC(=O)Nc2ccc3c(c2)OCO3)n1 [Compound 305, N-(3-((2-(3-(benzo[d][1,3]dioxol-5-yl)ureido)-6-methylpyrimidin-4-yl)amino)propyl)acetamide]
1000 to 10000 nM | CC(=O)NCCNc1cc(C)nc(NC(=O)Nc2ccc3c(c2)OCO3)n1 [Compound 306, N-{2-[2-(3-benzo[1,3]dioxol-5-yl-ureido)-6-methyl-pyrimidin-4-ylamino]-ethyl}-acetamide]
< 1000 nM | CC(=O)NCCNc1cc(C)nc(NC(=O)Nc2ccc3c(c2)OCCO3)n1 [Compound 307, N-(2-{2-[3-(2,3-dihydro-benzo[1,4]dioxin-6-yl)-ureido]-6-methyl-pyrimidin-4-ylamino}-ethyl)-acetamide]
